# Patent US20250057191A1, “METHODS OF IMPROVING THE NUTRITIONAL STATUS OF IMMUNE STRESSED ANIMALS” (ELANCO US INC., priority 2021, published 2025)
# Marks after values point to notes of the source that are not given here.
# What was measured:
# [1] = tested on: serum vitamin A; experiment: Example 4: serum vitamin A in nursery pigs fed full or partial compositions of Combo, weaning to end of nursery; format: in vivo
# Procedure: Serum samples were collected from two randomly selected pigs per pen with a total of 4 pigs per treatment at weaning (prior to access of the experimental diets) and at the end of the nursery phase when pigs reached approximately 45 lb of BW. Serum samples were analyzed for vitamin A concentration.
# [2] = tested on: nursery pigs; experiment: Example 4: growth performance and livability of nursery pigs from 8 to 45 lb of BW, full vs. partial components, 65 d
# Description: To evaluate the effects of dietary supplementation of the full vs. partial components of a beta-glucan/yeast cell wall/direct fed microbials/L-carnitine combination (Combo), a study was designed to feed the dietary treatments as shown Table 14 to nursery pigs from approximately 8 to 45 lb of BW post-weaning. Specifically, a total of 216 mixed-gender pigs were randomly placed in pens with 27 pigs per pen at weaning. Pens were blocked by weaning weight and pens within block were randomly assigned to one of 4 dietary treatments resulting in two pens per treatment. This study was conducted for 65 days in a 4-phase feeding program immediately after weaning.
# Concentration of DFM was no less than 7.5×10^8 cfu/g of the product. Dietary concentrations of beta-glucan, yeast cell wall, DFM and carnitine were the same for each of the treatments if included in the diets.
# [3] = end of nursery (approx. 45 lb BW)
# [4] = 8 to 45 lb BW, Combo and Yeast/DFM 1.0 lb/ton, L-Carnitine 50 ppm
# [5] = Early nursery, Phase 1 to 2, 22 d post-weaning
# [6] = Entire nursery, Phase 1 to 4, 65 d post-weaning
# [7] = Late nursery, Phase 3 to 4, 43 d post-weaning
structure (smiles),measurement,setting,value
"C[N+](C)(C)C[C@H](O)CC(=O)[O-] [carnitine, L-Carnitine]",percentage increase of serum vitamin A concentration from weaning to the end of nursery,"[1]; Combo and Yeast/DFM 1.0 lb/ton, L-Carnitine 50 ppm, FIG. 6",114%
same,"serum vitamin A concentration, Max.",[1]; [3],0.198 ppm
same,"serum vitamin A concentration, Mean",[1]; [3],0.168 ppm
same,"serum vitamin A concentration, Min.",[1]; [3],0.143 ppm
same,serum vitamin A concentration at the end of nursery,"[1]; ~45 lb BW, Combo and Yeast/DFM 1.0 lb/ton, L-Carnitine 50 ppm, 4 pigs per treatment",0.503 ppm
same,greater nursery closeout ADG compared to Control,[2]; [4],29%
same,greater nursery closeout G/F compared to Control,[2]; [4],29%
same,BW end of Phase 2,"[2]; Early nursery, 22 d post-weaning",13.3 ^b lb
same,ADFI,"[2]; Early nursery, Phase 1 to 2, 22 d",0.68 lb/day
same,ADG,[2]; [5],0.16 lb/day
same,G:F,[2]; [5],0.241 ^b
same,Mortality,[2]; [5],31.48%
same,ADFI,"[2]; Entire nursery, Phase 1 to 4, 65 d",1.01 ^a lb/day
same,ADG,[2]; [6],0.31 ª lb/day
same,"ADG, change compared to Control",[2]; [6],(+29%)
same,G/F,[2]; [6],0.282 ^b
same,"G/F, change compared to Control",[2]; [6],(+29%)
same,Mortality,[2]; [6],46.30%
same,Closeout BW end of Phase 4,"[2]; Late nursery, Phase 3 to 4",43.2 lb
same,ADFI,"[2]; Late nursery, Phase 3 to 4, 43 d",1.32 ª lb/day
same,ADG,[2]; [7],0.78 ^c lb/day
same,F/G,[2]; [7],1.69
same,Mortality,[2]; [7],14.81%
